Measured values as given in patent US10828301B2, “2,4-pyrimidinediamine compounds and their uses” (Rigel Pharmaceuticals, Inc, priority 2002, dated 2020).

Tests used:
Type in all cases: cell-based
[1] = system: cultured human mast cells (CHMC); experiment: CHMC low cell density ionomycin activation: tryptase assay; details: Homo sapiens, Mast cell, Low Density CHMC, ionomycin activation, tryptase readout; read-out: CHMC Ionomycin Tryptase
[2] = system: cultured human mast cells (CHMC); experiment: CHMC low cell density IgE activation: tryptase and LTC4 assays; details: Homo sapiens, Mast cell, Low Density CHMC, anti-IgE activation
How it was run: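 Degranulation measured after 30 min anti-IgE challenge at 37° C of CHMC plated at 1000-1500 cells/well following 1 h preincubation. Readouts: LTC4 by ELISA on donor-specific diluted supernatants, and tryptase activity from a 30 min room-temperature substrate reaction.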

[3] = system: cultured human mast cells (CHMC); experiment: CHMC high cell density IgE activation: degranulation (hexos, tryptase, histamine), leukotriene (LTC4) and cytokine (TNFalpha, IL-13) assays; details: anti-IgE activation
Description: After sensitizing, cells are counted, pelleted (1000 rpm, 5-10 minutes), and resuspended at 1-2×10^6 cells/ml in MT buffer. Add 100 ul of cell suspension to each well and 100 ul of compound dilutions. The final vehicle concentration is 0.5% DMSO. Incubate at 37° C. (5% CO2) for 1 hour. After 1 hour of compound treatment, stimulate cells with 6× anti-IgE. Mix wells with the cells and allow plates to incubate at 37° C. (5% CO2) for one hour. After 1 hour incubation, pellet cells (10 minutes, 1000 RPM) and collect 200 ul per well of the supernatant, being careful not to disturb pellet. Place the supernatant plate on ice. During the 7-hour step (see next) perform tryptase assay on supernatant that had been diluted 1:500. Resuspend cell pellet in 240 ul of CM media containing 0.5% DMSO and corresponding concentration of compound. Incubate CHMC cells for 7 hours at 37° C. (5% CO2). After incubation, pellet cells (1000 RPM, 10 minutes) and collect 225 ul per well and place in −80° C. until ready to perform ELISAS. ELISAS are performed on appropriately diluted samples (determined empirically for each donor cell population so that the sample measurement falls within the standard curve) following the supplier's instructions.

[4] = LTC4 readout, read-out: CHMC anti-IgE LTC4
[5] = tryptase readout, read-out: CHMC anti-IgE Tryptase
[6] = LTC4, read-out: CHMC high density LTC4
[7] = TNF-alpha, read-out: CHMC high density TNF-alpha
[8] = hexosaminidase release, read-out: CHMC high density hexos
[9] = histamine release, read-out: CHMC high density histamine
[10] = tryptase release, read-out: CHMC high density tryptase
[11] = IL-13, read-out: CHMC high density IL-13

SMILES	IC50 [1] [nM]	IC50 [2, 4] [nM]	IC50 [2, 5] [nM]	IC50 [3, 6] [nM]	IC50 [3, 7] [nM]	IC50 [3, 8] [nM]	IC50 [3, 9] [nM]	IC50 [3, 10] [nM]	IC50 [3, 11] [nM]
COc1ccc(OCCNNc2ncc(F)c(Nc3cccc(O)c3)n2)cc1 [Compound R950211, 5-Fluoro-N4-(3-hydroxyphenyl)-N2-(4-methoxyphenyloxyethyleneamino)-2,4-pyrimidinediamine]	> 10000	–	10000	–	–	–	–	–	–
Oc1cccc(Nc2nc(NCc3ccc4c(c3)CCO4)ncc2F)c1 [Compound R950213, N2-[2,3-Dihydrobenzo[b]furan-5-ylmethyl]-5-fluoro-N4-(3-hydroxyphenyl)-2,4-pyrimidinediamine]	> 10000	–	> 10000	–	–	–	–	–	–
Oc1cccc(Nc2nc(NCC3COc4ccccc4O3)ncc2F)c1 (centres unmarked) [Compound R950214, N2-(2,3-Dihydro-1,4-benzodioxin-2-ylmethyl)-5-fluoro-N4-(3-hydroxyphenyl)-2,4-pyrimidinediamine]	> 10000	–	10000	–	–	–	–	–	–
CNC(=O)C=Nc1cccc(Nc2ncc(F)c(Nc3cccc(O)c3)n2)c1 [Compound R950217, 5-Fluoro-N4-(3-hydroxyphenyl)-N2-[3-(N-methylamino)carbonylmethyleneaminophenyl]-2,4-pyrimidinediamine]	> 10000	–	340	–	–	–	–	–	–
NC(=O)C=Nc1cccc(Nc2ncc(F)c(Nc3cccc(O)c3)n2)c1 [Compound R950219, N2-(3-Aminocarbonylmethyleneaminophenyl)-5-fluoro-N4-(3-hydroxyphenyl)-2,4-pyrimidinediamine]	> 10000	–	439	–	–	–	–	–	–
CN(C)C(=O)C=Nc1cccc(Nc2ncc(F)c(Nc3cccc(O)c3)n2)c1 [Compound R950220, N2-[3-(N,N-Dimethylamino)carbonylmethyleneaminophenyl]-5-fluoro-N4-(3-hydroxyphenyl)-2,4-pyrimidinediamine]	> 10000	–	489	–	–	–	–	–	–
CNCCNC(=O)C=Nc1cccc(Nc2ncc(F)c(Nc3cccc(O)c3)n2)c1 [Compound R950225, 5-Fluoro-N4-(3-hydroxyphenyl)-N2-[3-[(N-methylamino)ethylamino]carbonylmethyleneaminophenyl]-2,4-pyrimidinediamine]	> 10000	–	5280	–	–	–	–	–	–
Nc1cccc(Nc2ncc(F)c(Nc3cccc(O)c3)n2)c1 [Compound R950227, N2-(3-Aminophenyl)-5-fluoro-N4-(3-hydroxyphenyl)-2,4-pyrimidinediamine]	> 10000	–	1030	–	–	–	–	–	–
CNC(=O)C=Nc1cccc(Nc2ncc(F)c(Nc3cccc(NCCO)c3)n2)c1 [Compound R950233, 5-Fluoro-N4-[3-(2-hydroxyethylamino)phenyl]-N2-[3-(N-methylamino)carbonylmethyleneaminophenyl]-2,4-pyrimidinediamine]	> 10000	–	980	–	–	–	–	–	–
Nc1cccc(Nc2nc(Nc3ccc4c(c3)N=CCO4)ncc2F)c1 [Compound R950254, N4-(3-Aminophenyl)-N2-(1,4-benzoxazin-6-yl)-5-fluoro-2,4-pyrimidinediamine]	> 10000	–	496	–	–	–	–	–	–

More lines, now with the values ahead:

IC50 [1] [nM]	IC50 [2, 4] [nM]	IC50 [2, 5] [nM]	IC50 [3, 6] [nM]	IC50 [3, 7] [nM]	IC50 [3, 8] [nM]	IC50 [3, 9] [nM]	IC50 [3, 10] [nM]	IC50 [3, 11] [nM]	SMILES
> 10000	78	313	326	> 10000	640	> 10000	> 2000	–	CNC(=O)c1cc2cc(Nc3ncc(F)c(Nc4ccc(C(C)(C)C)cc4)n3)ccc2o1 [Compound R926494, N4-(4-tert-Butylphenyl)-5-fluoro-N2-[2-(N-methylamino)carbonylbenzofuran-5-yl]-2,4-pyrimidinediamine]
> 10000	–	571	414	622	429	809	533	–	CNC(=O)c1cc2cc(Nc3ncc(F)c(Nc4ccc5c(c4)OCCO5)n3)ccc2o1 [Compound R926496, N4-(3,4-Ethylenedioxyphenyl)-5-fluoro-N2-[2-(N-methylamino)carbonylbenzofuran-5-yl]-2,4-pyrimidinediamine]
> 10000	–	228	–	> 10000	> 10000	–	> 10000	6440	COC(=O)c1cc2cc(Nc3ncc(F)c(Nc4cccc(O)c4)n3)ccc2o1 [Compound R926614, 5-Fluoro-N4-(3-hydroxyphenyl)-N2-(2-methoxycarbonylbenzofuran-5-yl)-2,4-pyrimidinediamine]
> 10000	–	–	< 1100	< 1100	< 1100	< 1100	< 1100	2050	OCc1cc2cc(Nc3ncc(F)c(Nc4cccc(O)c4)n3)ccc2[nH]1 [Compound R926700, 5-Fluoro-N4-(3-hydroxyphenyl)-N2-[2-(hydroxymethyl)-(1H)-indol-5-yl]-2,4-pyrimidinediamine]
> 10000	–	564	> 10000	> 10000	> 2000	> 10000	> 10000	–	COC(=O)c1cc2cc(Nc3ncc(F)c(Nc4ccc(OC(C)C)cc4)n3)ccc2o1 [Compound R926704, 5-Fluoro-N2-(2-methoxycarbonylbenzofuran-5-yl)-N4-(4-isopropoxyphenyl)-2,4-pyrimidinediamine]
> 10000	533	263	494	> 10000	1010	641	1260	–	CC(C)Oc1ccc(Nc2nc(Nc3ccc4oc(CO)cc4c3)ncc2F)cc1 [Compound R926705, 5-Fluoro-N2-[2-(hydroxymethyl)benzofuran-5-yl]-N4-[4-(isopropoxy)phenyl]-2,4-pyrimidinediamine]
2410	78	70	1490	> 10000	> 2000	> 10000	> 10000	–	COC(=O)C1Cc2cc(Nc3ncc(F)c(Nc4ccc(OC(C)C)cc4)n3)ccc2O1 (centres unmarked) [Compound R926706, 5-Fluoro-N2-(2,3-dihydro-2-(methoxycarbonyl)benzofuran-5-yl)-N4-(4-isopropoxyphenyl)-2,4-pyrimidinediamine]
7300	–	268	< 1100	3190	< 1100	1180	< 1100	3010	Cc1cc(Nc2ncc(F)c(Nc3cc(C)c(O)c(Cl)c3)n2)cc(Cl)c1O [Compound R940216, N2,N4-Bis-(3-chloro-4-hydroxy-5-methylphenyl)-5-fluoro-2,4-pyrimidinediamine]
> 10000	–	310	201	1060	567	627	618	798	Nc1cc(Cl)cc(Nc2ncc(F)c(Nc3cc(N)cc(Cl)c3)n2)c1 [Compound R950141, N2,N4-Bis(3-amino-5-chlorophenyl)-5-fluoro-2,4-pyrimidinediamine]
> 10000	–	9000	–	–	–	–	–	–	Fc1cnc(NCc2ccc3c(c2)CCO3)nc1Nc1ccc2c(c1)OCCO2 [Compound R950205, N2-[2,3-Dihydrobenzo[b]furan-5-ylmethyl]-N4-(3,4-ethylenedioxyphenyl)-5-fluoro-2,4-pyrimidinediamine]
> 10000	–	3660	–	–	–	–	–	–	Fc1cnc(NCC2COc3ccccc3O2)nc1Nc1ccc2c(c1)OCCO2 (centres unmarked) [Compound R950206, N2-(2,3-Dihydro-1,4-benzodioxin-2-ylmethyl)-N4-(3,4-ethylenedioxyphenyl)-5-fluoro-2,4-pyrimidinediamine]
> 10000	–	748	–	–	–	–	–	–	OCCN(CCO)c1cccc(Nc2ncc(F)c(Nc3ccc4c(c3)OCCO4)n2)c1 [Compound R950209, N2-[3-Bis(hydroxyethyl)aminophenyl]-N4-(3,4-ethylenedioxyphenyl)-5-fluoro-2,4-pyrimidinediamine]
> 10000	–	10000	–	–	–	–	–	–	Oc1cccc(Nc2nc(N=Cc3ccoc3)ncc2F)c1 [Compound R950210, N2-(3-Furylmethylene)-5-fluoro-N4-(3-hydroxyphenyl)-2,4-pyrimidinediamine]
